Experimental data reported in paper PMC6927398 (Journal of the American Chemical Society, 2019).

Biological target: IvoA (Aspergillus nidulans, UniProt C8V7P4)
Experiment: chiral HPLC of D-tryptophan formation, steady-state kinetics
Format: biochemical
Conditions: substrate inhibition; ATP-dependent stereoinversion, apparent constant

Sequence of IvoA (C8V7P4 whole entry): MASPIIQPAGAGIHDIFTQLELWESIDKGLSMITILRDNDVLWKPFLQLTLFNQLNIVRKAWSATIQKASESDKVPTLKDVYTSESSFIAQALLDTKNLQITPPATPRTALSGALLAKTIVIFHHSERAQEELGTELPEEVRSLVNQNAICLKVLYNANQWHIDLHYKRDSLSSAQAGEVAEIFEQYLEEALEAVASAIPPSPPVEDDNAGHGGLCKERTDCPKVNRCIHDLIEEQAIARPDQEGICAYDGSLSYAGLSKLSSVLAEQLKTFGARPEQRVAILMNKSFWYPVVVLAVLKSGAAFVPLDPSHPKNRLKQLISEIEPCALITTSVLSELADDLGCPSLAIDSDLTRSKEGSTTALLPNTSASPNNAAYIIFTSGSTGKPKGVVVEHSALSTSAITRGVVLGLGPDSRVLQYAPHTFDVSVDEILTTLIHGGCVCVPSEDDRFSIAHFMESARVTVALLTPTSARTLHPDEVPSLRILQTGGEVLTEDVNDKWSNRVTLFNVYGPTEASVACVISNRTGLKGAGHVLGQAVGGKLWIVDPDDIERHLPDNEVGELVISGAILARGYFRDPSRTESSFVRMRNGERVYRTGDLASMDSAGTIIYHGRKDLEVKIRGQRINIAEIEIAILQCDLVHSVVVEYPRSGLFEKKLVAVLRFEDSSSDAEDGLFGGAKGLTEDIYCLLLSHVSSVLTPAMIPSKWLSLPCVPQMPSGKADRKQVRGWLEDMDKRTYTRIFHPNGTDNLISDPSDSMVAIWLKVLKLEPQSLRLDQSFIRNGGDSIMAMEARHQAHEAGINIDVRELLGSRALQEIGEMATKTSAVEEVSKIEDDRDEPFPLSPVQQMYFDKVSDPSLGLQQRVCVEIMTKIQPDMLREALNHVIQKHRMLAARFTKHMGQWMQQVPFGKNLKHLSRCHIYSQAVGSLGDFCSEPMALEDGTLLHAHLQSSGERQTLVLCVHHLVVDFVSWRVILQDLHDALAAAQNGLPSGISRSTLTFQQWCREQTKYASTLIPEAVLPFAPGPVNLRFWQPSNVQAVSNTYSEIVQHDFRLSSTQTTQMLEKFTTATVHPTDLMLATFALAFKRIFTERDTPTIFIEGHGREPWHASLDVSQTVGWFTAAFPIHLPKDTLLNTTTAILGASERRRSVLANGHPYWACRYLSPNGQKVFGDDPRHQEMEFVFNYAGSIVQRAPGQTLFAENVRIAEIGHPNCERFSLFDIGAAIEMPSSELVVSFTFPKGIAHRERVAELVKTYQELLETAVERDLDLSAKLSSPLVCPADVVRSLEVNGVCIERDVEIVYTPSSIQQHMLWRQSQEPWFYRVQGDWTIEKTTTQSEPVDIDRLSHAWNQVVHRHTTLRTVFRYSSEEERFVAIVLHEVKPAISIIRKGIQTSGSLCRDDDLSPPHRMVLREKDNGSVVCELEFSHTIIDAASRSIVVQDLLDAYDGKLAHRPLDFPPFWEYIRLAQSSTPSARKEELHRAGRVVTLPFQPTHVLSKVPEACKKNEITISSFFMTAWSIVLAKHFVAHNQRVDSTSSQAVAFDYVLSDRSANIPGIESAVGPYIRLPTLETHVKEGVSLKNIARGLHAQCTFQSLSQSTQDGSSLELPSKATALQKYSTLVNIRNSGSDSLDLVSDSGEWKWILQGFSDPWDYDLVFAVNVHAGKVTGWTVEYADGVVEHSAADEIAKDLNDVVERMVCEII

## N[C@@H](Cc1c[nH]c2ccccc12)C(=O)O [L-tryptophan]
  Ki app: 4 ± 1 mM
